Laboratory results as given in patent EP0324328B1, “Use of the N-n-butyl derivative of desoxynojirimycin in the manufacture of a medicament inhibiting HIV-Virus” (priority 1987, dated 1989).

Assays:
[1] = system: B16-F10 murine melanoma cells; assay: Incorporation of radiolabeled galactose, mannose, glucose and thymidine into cells; type: cell-based; details: result in words; for galactose incorporation into the cells: radiolabeled galactose; for glucose utilization/inhibition: radiolabeled glucose; for mannose utilization: radiolabeled mannose
HIV-1 = assay: Virus titer (TCID) of HIV-1 infected T-cell cultures grown with test compound; type: cell-based; details: control 10^6; for HIV-1 (TCID): Table 2, 0.10 mg/ml, 10^4 T-45 or MOLT-4 cells (identical results), 10^4 TCID inoculum, after day 10; for VIRUS TITER HIV-1: Table 3, Example 2, 0.1 mg/ml, T-45 and MOLT-4 cells, 10^4 TCID on 10^4 cells
Experimental: (§1) Cell free suspensions of the HIV were prepared from infected cultures. The concentration of infectious particles was estimated on end-point titration assay using serial ten-fold dilutions. The approximate number of infectious particles in each preparation was determined by the highest dilution which contains infectious HIV as determined by synctial formation, cytopathicity [Leonard et al., Proc. Natl. Acad. Sci. USA 85, 3570-3574 (1988); Barre-Sinoussi et al., Science 220, 868-870 (1983)] and HIV antigen [Karpas et al., Lancet 1, 695-697 (1985)] synthesis after 10 days of culture with 10^4 T-cells. This represents the concentration of infectious particles, herein defined as the tissue culture infectious dose (TCID).
The assay was run in 96 well plastic microtiter plates in which 0.2 ml of culture medium containing 10^4 T-cells are seeded into each well. RPMI-1640 supplemented with 10% fetal calf serum was used as the culture medium. In each assay, 6 wells are used. Three (1-3) are infected with 10^4 TCID/well of HIV-1 or HIV-2 and to the other three (4-6) culture medium alone is added. Medium is changed at the same intervals for each test compound. The detailed assay procedure is illustrated in Figures 1 and 2.
(§2) The efficacy of the test compounds used in this example was assessed as follows: 0.2 ml of culture medium containing 10^4 T-45 cells were transferred into each well of a 96-well flat-bottomed tissue-culture plastic plate and the cells were allowed to settle at 37°C (see Figure 1). After 4 hours the media were aspirated and replaced with media which contained the test compound. Following overnight incubation the media was aspirated and 10^4 TCID of virus (HIV-1 or HIV-2) was added to each well. Incubation was continued at 37°C in 5% CO2 for 1 hour. Thereafter, growth media containing the various compounds were added and incubation at 37°C was continued. On the fourth day the cell suspensions from each well were split and seeded into two new wells and 0.2 ml of fresh media with compounds was added. This was repeated on the seventh day. Cells were examined by microscopy during days 1 to 10 for the presence of syncytia, growth rate and the appearance of the cytopathic effect (CPE) (giant cells, pycnotic nuclei, loss of refractility). CPE (100%) was defined as no round, refractile, uniform cells remaining; only giant, ballooned pyknotic cells were present. The viability of HIV infected cultures was determined by a rough count/estimate of cells which underwent CPE in relation to round refractile uniform (normal) cells in a given culture. Cells in wells which were incubated with compounds which appeared to inhibit or reduce HIV replication and in which there was marked cell proliferation were either transferred to larger wells (of a 24-well plate) or divided in order to maintain an approximate constant cell density to promote continuous cell division.
That is, HIV-1 was first passaged in T-45 cells; likewise, HIV-1 was first passaged in MOLT-4 cells. The same passaging was done with HIV-2. The test compounds were used at a concentration of 0.1 mg/ml. 10^4 TCID of HIV-1 and separately of HIV-2 were used to infect 10^4 cells. Upon completion of the test, the virus titers were as follows: TABLE 3

HIV = assay: TCID titre of culture supernatants of T-45 cells infected with HIV, Fig. 4; type: cell-based; details: for reduction of TCID titre of culture supernatants: T-45 cells infected with HIV, after 10 days in culture, result in words; for reduction of the virus titer / yield of infectious HIV: at non-cytotoxic concentrations
Experimental: FIG. 4 is a graphical representation in which the viral titer (determined as TCID) is plotted against the concentration in mg/ml of various of the test compounds (drugs) of FIG. 3 in panels (a) and (b).
as §1, §2
Quantitative data on the effect of the various compounds on the non-infected cells (cytotoxicity) was obtained by comparison of their growth rate to control cells not exposed to drugs (Table 1). Fig. 4 and Table 2 show the relation between the TCID titre of culture supernatants of T-45 cells infected with HIV after 10 days in culture and the concentration of drug. […] The inability of any of these drugs alone to totally reduce the TCID may be due to heterogeneity of virus production or spread. […] In addition, the MOLT-4 cell line was also used.

glucosidase I = molecular target: T1, glucosidase I (Bos taurus, UniProt A0A3Q1M9D9); details: reported by Schweden et al., Arch. Biochem. Biophys. 248(1), 335-340 (1986); cited from earlier work
T1 sequence (A0A3Q1M9D9 1-839): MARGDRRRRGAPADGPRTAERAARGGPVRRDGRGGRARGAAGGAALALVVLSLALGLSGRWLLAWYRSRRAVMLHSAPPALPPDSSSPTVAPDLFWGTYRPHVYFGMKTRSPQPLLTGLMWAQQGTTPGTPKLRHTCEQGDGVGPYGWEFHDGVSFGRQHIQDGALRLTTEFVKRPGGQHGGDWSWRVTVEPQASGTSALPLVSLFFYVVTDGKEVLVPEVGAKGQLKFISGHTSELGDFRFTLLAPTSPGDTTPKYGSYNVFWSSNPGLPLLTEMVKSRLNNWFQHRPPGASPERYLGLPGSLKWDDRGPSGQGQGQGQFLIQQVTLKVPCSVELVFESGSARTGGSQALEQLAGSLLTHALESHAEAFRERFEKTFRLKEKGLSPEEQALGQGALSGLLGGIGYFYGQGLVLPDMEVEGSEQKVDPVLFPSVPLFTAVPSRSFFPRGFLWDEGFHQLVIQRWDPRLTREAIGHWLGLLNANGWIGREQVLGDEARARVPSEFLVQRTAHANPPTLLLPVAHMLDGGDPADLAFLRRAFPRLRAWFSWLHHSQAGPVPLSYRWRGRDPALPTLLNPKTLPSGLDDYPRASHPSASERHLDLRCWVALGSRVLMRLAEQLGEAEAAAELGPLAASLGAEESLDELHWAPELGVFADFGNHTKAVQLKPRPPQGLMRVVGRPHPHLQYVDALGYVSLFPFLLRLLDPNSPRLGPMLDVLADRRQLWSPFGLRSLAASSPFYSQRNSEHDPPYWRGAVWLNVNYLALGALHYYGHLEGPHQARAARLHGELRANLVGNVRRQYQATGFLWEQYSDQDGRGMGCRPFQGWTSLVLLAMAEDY

[2] = replicate tests (Tables 2 and 3), two virus strains, two cell lines

| Structure (SMILES) | galactose incorporation into the cells [1] | glucose utilization/inhibition [1] | mannose utilization [1] | ^3H-Thymidine uptake into the cells [1] | HIV-1 (TCID) (HIV-1) | VIRUS TITER HIV-1 (HIV-1) | reduction of TCID titre of culture supernatants (HIV) | reduction of the virus titer / yield of infectious HIV (HIV) | effectiveness as an inhibitor of HIV compared with N-ethyl deoxynojirimycin (HIV; [2]) | effectiveness as an inhibitor of HIV compared with N-methyl-deoxynojirimycin (HIV; [2]) | glucosidase I inhibitory activity (glucosidase I) |
| --- | --- | --- | --- | --- | --- | --- | --- | --- | --- | --- | --- |
| CCCCN1C[C@H](O)[C@@H](O)[C@H](O)[C@H]1CO [BuDNJ, N-n-butyl-deoxynojirimycin] | substantially inhibited galactose incorporation into the cells at 1.0 mM or less | little or no effect | inhibited mannose utilization | not affected by N-butyl-DNJ up to 2.0 mM | <10 TCID | 10 | negligible virus TCID titres | over five logs | three log orders more effective | two log orders more effective | virtually identical |
| CN1C[C@H](O)[C@@H](O)[C@H](O)[C@H]1CO [MeDNJ, N-methyl-deoxynojirimycin] | only slightly inhibitory | inverted dose-response curve | either stimulated incorporation or, conservatively, had no effect | inhibited incorporation at 1.0 mM | 10^2 TCID | 10^2 | reduced the TCID only partially | two to four log-order of reduction |  |  | virtually identical |
